Measured values taken from paper PMC10638440, “Structural basis of bile salt extrusion and small-molecule inhibition in human BSEP” (Nature Communications, 2023).

Key:
BSEP N996A = molecular target: T1, BSEP N996A (Homo sapiens, UniProt O95342, N996A); test: GBM-stimulated ATPase activity ([…] GBM); type: biochemical
T1 construct: gene ABCB11; full-length

BSEPE1244Q = molecular target: T2, BSEPE1244Q (Homo sapiens, UniProt O95342, E1244Q); test: cryo-EM structure at […] Å; type: binding
T2 construct: gene ABCB11; full-length, nanodisc-reconstituted

BSEP [1] = molecular target: T3, BSEP (Homo sapiens, UniProt O95342); design: gene ABCB11
BSEP [2] = molecular target: T3, BSEP; test: cryo-EM structure of vanadate-trapped BSEP at […] Å; type: binding; design: gene ABCB11; full-length wild-type, nanodisc-reconstituted

T3 sequence (O95342 whole entry): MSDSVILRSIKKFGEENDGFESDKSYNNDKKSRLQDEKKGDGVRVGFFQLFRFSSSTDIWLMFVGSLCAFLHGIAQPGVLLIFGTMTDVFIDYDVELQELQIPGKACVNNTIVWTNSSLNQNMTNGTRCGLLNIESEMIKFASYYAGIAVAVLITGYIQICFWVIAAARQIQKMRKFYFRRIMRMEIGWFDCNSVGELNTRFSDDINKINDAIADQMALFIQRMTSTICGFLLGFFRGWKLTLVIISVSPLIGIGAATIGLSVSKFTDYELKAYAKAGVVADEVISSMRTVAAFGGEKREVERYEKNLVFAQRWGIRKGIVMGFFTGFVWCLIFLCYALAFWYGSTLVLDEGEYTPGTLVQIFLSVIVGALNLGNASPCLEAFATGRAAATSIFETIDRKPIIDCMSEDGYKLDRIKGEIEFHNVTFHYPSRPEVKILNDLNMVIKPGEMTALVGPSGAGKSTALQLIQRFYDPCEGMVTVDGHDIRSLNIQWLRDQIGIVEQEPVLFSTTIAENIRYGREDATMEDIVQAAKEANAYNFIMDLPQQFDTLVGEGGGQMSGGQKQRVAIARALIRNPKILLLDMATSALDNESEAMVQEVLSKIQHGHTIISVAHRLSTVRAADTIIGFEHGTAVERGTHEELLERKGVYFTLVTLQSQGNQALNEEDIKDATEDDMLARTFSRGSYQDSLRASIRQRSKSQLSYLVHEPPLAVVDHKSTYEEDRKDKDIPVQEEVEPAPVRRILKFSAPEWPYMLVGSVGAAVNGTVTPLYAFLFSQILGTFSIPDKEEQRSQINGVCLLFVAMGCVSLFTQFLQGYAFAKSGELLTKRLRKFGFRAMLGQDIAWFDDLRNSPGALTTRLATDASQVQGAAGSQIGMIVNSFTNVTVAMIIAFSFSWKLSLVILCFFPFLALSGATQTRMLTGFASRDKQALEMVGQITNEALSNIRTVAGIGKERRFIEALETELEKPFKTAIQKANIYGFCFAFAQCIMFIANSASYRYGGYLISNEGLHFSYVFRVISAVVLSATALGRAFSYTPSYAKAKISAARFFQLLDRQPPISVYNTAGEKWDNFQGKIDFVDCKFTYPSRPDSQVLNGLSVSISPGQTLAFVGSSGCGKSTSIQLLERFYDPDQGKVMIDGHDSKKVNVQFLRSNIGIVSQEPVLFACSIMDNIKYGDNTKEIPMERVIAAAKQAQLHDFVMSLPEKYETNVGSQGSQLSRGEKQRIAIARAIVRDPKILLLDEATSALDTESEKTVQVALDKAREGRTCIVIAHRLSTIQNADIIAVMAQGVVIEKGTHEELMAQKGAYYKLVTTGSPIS
T2 sequence (O95342 whole entry E1244Q): as the sequence (O95342 whole entry) above, with E1244Q counted along it
T1 sequence (O95342 whole entry N996A): as the sequence (O95342 whole entry) above, with N996A counted along it

COc1ccc(Cl)cc1C(=O)NCCc1ccc(S(=O)(=O)NC(=O)NC2CCCCC2)cc1 [GBM, glibenclamide]
GBM-stimulated ATPase activity (300 μM GBM) (BSEP N996A): N996A and S1022F exhibit increased basal ATPase activity compared to the wild-type BSEP, and their activity is stimulated by GBM

Nc1ncnc2c1ncn2[C@@H]1O[C@H](CO[P@@](=O)(O)O[P@](=O)(O)OP(=O)(O)O)[C@@H](O)[C@H]1O [ATP]
cryo-EM structure at 3.0 Å (BSEPE1244Q): We observed two distinct EM densities in the two NBSs, each corresponding to an ATP molecule
Km (BSEP [1]): 207 µM

Nc1ncnc2c1ncn2[C@@H]1O[C@H](COP(=O)(O)OP(=O)(O)O)[C@@H](O)[C@H]1O [ADP]
cryo-EM structure of vanadate-trapped BSEP at 2.8 Å (BSEP [2]): trapping ADP and preventing its release from NBS2
